{
  "source": "patent US9072729B2",
  "about": "“Method for treating fibrosis and cancer with imidazolium and imidazolinium compounds” (Agency for Science, Technology and Research, priority 2008, dated 2015)",
  "key": {"[1]": {"test_system": "caspase 3, 8 and 9 in HLE cells", "experiment": "Protein extract based caspase 3/8/9 colorimetric assays", "format": "cell-based, human", "conditions": "24 hr", "experimental": "FIG. 23. (A). […] HLE cells were grown in a T75 flask and treated with DBZIM for 24 hr. The cells were then lysed and cytoplasmic protein was collected for assaying caspase 8, 9 and 3 using kits from Biovision. The data was normalized against the vehicle control. (B). […] HLE cells were treated by DBZIM of 1.5 mM for 24 hr. Cytosolic and mitochondria protein fractions were collected using a kit from Biovision. 15 μg of each protein was resolved in 4-12% gradient PAGE-SDS gel. The target proteins were recognized by antibody of cytochrome C, and visualized by the ECL method. The membrane was stripped and probed for the α-tubulin as the loading control for cytosolic fraction and Cox4 for mitochondria fraction.\nCapspase 3/8/9 activities were determined using total protein extract as starting material (Biovision Inc., CA, USA). HLE cells were cultured in T75 flask and treated with DBZIM of various concentrations. Cytosolic protein extract was collected by pelleting and lysing the cells and centrifugation to remove the debris. Capspase 3, 8 and 9 activities were assayed using the same protein extract but adding the respective substrate. Absorbance readings were taken at 405 nm using Tecan Safire II plate reader. Results were expressed as relative caspase activity by normalizing to control cells without compound treatment."}, "HLE cells": {"test_system": "HLE cells", "experiment": "HLE cell proliferation assay (cell count, BrdU; HCS)", "format": "cell-based, human", "conditions": "0-1.25 mM, 48 h", "experimental": "FIG. 21. DBZIM inhibited cell proliferation and disrupted cell cycle in HLE cells (A). DBZIM inhibited HCC cell proliferation. HLE cells were seeded at a density of 5000 cells/well in 96-well plate, and cultured for 18-24 h in 10% […] DMEM before the addition of various compounds (0-1.25 mM) in 10% FBS DMEM for 48 h of proliferation before assaying. Cell count was calculated based on Hoechst dye staining and BrdU incorporation was based on the total fluorescence intensity of antibody staining. (B). DBZIM arrested HCC cells at G0/G1 phase. HLE cells were incubated with DBZIM (0, 1, 3 mM) for 24 hr before fixation and DAPI staining for DNA content (2N vs. 4N) determination.\nHLE cells were grown, treated by compounds in 6 replicates for 48 hr in a 96-well plate. Cells were then fixed by using 4% paraformaldehyde and stained by DAPI and BrdU antibody using Hitkit (Thermo Scientific, IL, USA). Cells were imaged and analyzed on ArrayScan VTI HCS reader (Thermal Scientific, PA, USA). Cell numbers were counted based on nuclear staining and BrdU incorporation was determined and expressed as percentage of positively stained cells.\nThe effect of DBZIM on the HCC cell proliferation and cell cycle was characterized on a high-content screening (HCS) platform. Under each concentration, at lease 1000 cells were analyzed. […]"}, "AP-1": {"test_system": "AP-1", "experiment": "Western blot of AP-1 complex members in nuclear extracts", "format": "cell-based, human", "conditions": "24 hr", "experimental": "FIG. 28. DBZIM induced up-regulation of AP-1 expression in HepG2 cells. HepG2 cells were treated with DBZIM for 24 hr. Cytoplasmic and nuclear proteins were fractionated using a kit from Pierce. 15 μg of nuclear proteins were resolved in 4-12% gradient PAGE-SDS gel. The target proteins were recognized by their respective antibodies, and visualized by the ECL method. The membrane was stripped and re-probed for Tata binding protein TBP as loading control.\nProtein extracts were prepared by lysing cell pellet in RIPA buffer (Pierce, Ill., USA) for total protein extract, or in NE-PER reagent from Pierce (Pierce, Ill., USA) for nuclear and cytoplasmic fractions, or in a Kit from BioVision (CA, USA) for mitochondria and cytosol fractions. Protein content was quantified using BCA Kit (Pierce, Ill., USA). […] The membrane was then probed with primary antibodies against Bcl-XL, Bak, Bcl-2α, Bax (Lab Vision Corp., CA, USA), survivin, xIAP, cIAP (R&D systems Inc., MN, USA), c-Jun, c-Fos, JunB, JunD, Fra-1, Fra-2 (Santa Cruz Biotechnology, CA, USA) respectively, and detected by horseradish peroxidase-conjugated secondary antibody (Santa Cruz Biotechnology, CA, USA). Protein bands were recorded on X-ray film by reacting with ECL chemiluminescence reagents (Amersham Biosciences, NJ, USA). […]"}, "U87 MG [2]": {"test_system": "U87 MG", "experiment": "Caspase 3/7 activity in U87 MG", "format": "cell-based, human", "conditions": "2 mM, 6 hr", "experimental": "(§1) FIG. 30. DBZIM inhibited cell proliferation in glioma cell line C6 (A) and U87 MG (C) and induced caspase 3/7 activity in C6 (B) and U87 MG (D). C6 or U87 cells were incubated with DBZIM of various concentrations for 48 hr for proliferation assay and 6 hr for caspase 3/7 activation assay. Proliferation was measured using MTS kit from Promega and expressed as relative cell proliferation with control group was normalized to 1. Caspase 3/7 activity was quantified using a kit from Promega and also expressed as relative caspase 3/7 activity of treated groups over control group.\nCapspase 3/7 activity and lactate dehydrogenase (LDH) release were measured by Fluorometric assays (Promega Corp., WI, USA). The HCC cells were cultured in 96-well plate and treated with DBZIM of various concentrations for 6 hr before assays. For caspase 3/7 assay, medium was removed and substrate buffer was added to lyse the cell and react with caspase 3/7 to give rise to fluorescence signal which was read at Ex=485 nm and Em=530 nm on a Tecan Safire II plate reader after 1 hr incubation. The caspase 3/7 activity of sample cells with the compound treatment was expressed as relative fold change after normalizing to the control cells. The LDH assay (indicative of membrane integrity) was performed using a Kit from Promega Corp according to manufactor's instructions."}, "U87 MG [3]": {"test_system": "U87 MG", "experiment": "Proliferation assay (MTS), glioma U87 MG", "format": "cell-based", "conditions": "Homo sapiens, U-87 MG, 48 h, determined at day 2", "experimental": "as §1\nProliferation of Glioma cell lines: U87 MG and C6 under the treatment of DBZIM was examined using 3-(4,5-dimethylthiazol-2-yl)-5-(3-carboxymethoxyphenyl)-2-(4-sulfophenyl)-2H-tetrazolium (MTS) based proliferation assay kit (Promega, Wis., USA). MTS reagent was added to the control and treated cells (after 48 hr) directly and the absorbance signal was read at 490 nm using a Tecan Safire II plate reader."}, "[4]": {"experiment": "Stability in drinking water by NMR analysis", "format": "physicochemical", "conditions": "room temperature"}, "[5]": {"conditions": "culture medium for human esophageal cancer cells (Hou et al. 2005); cited from earlier work"}},
  "data": [
    {"compound": "[Br-].c1ccc(Cn2cc[n+](Cc3ccccc3)c2)cc1", "note": "[DBZIM, 1,3-bisbenzylimidazolium bromide]", "values": [
      {"measurement": "caspase 3 activity", "setting": "[1]", "result": "dose-dependently enhanced"},
      {"measurement": "caspase 8 activity", "setting": "[1]", "result": "not affected"},
      {"measurement": "caspase 9 activity", "setting": "[1]", "result": "dose-dependently enhanced"},
      {"measurement": "HLE cell proliferation (total cell number, BrdU positive cells)", "setting": "HLE cells", "result": "inhibited the HLE cell proliferation"},
      {"measurement": "AP-1 complex members (C-Jun, Jun B, Jun D, Fra-1; not Fra-2)", "setting": "AP-1", "result": "significantly induced"},
      {"measurement": "elevation of caspase 3/7", "setting": "U87 MG [2]", "result": 17, "unit": "folds"},
      {"measurement": "IC50", "setting": "U87 MG [3]", "result": 2100, "unit": "µM"}
    ]},
    {"compound": "CC(C)n1cc[n+](C(C)C)c1.F[B-](F)(F)F", "note": "[DPIM, 1,3-diisopropylimidazolium tetrafluoroborate]", "values": [
      {"measurement": "stability in water", "setting": "[4]", "result": "stable in water at room temperature condition for at least two weeks"}
    ]},
    {"compound": "(−)-Epigallocatechin gallate [EGCG, reference compound]", "values": [
      {"measurement": "half life in culture medium", "setting": "[5]", "result": 30, "unit": "min"}
    ]}
  ]
}
